From PMC8548882, “The Trp-rich Antimicrobial Amphiphiles With Intramolecular Aromatic Interactions for the Treatment of Bacterial Infection” (Frontiers in Microbiology, 2021)
Ends that are not written are not given here.

Columns and labels:
P. aeruginosa 27853 = type: cell-based, Pseudomonas aeruginosa ATCC 27853; details: 27853
Procedure: The famous microtiter dilution, National Committee for Clinical Laboratory Standards, was adopted to measure the antimicrobial ability of the engineering peptides ([Chou et al., 2016]). In brief, the 50μl with serial dilution was incubated with the same volume bacteria (1×10^5CFU/ml in midi-logarithmic phase) in a 96-well plate 18–24h at 37°C. The positive control was the bacteria treated with culture medium and the negative control was merely culture medium. […] The antimicrobial performance of peptides against P. aeruginosa 27853 cells was further studied under the complicated physiological conditions ([Lyu et al., 2016]). […] The serum was also taken into the consideration for the adverse impact on the antimicrobial effect of peptides.

S.epidermidis 12228 = type: cell-based, Staphylococcus epidermidis ATCC 12228
Description: (§1) The tested strains were kindly provided by the laboratory of Veterinary Microbiology and Immunology, the College of Veterinary Medicine, Northeast Agricultural University (gram-negative bacteria, Salmonella enterica serovar typhimurium C77-31, Salmonella typhimurium ATCC 14028, Escherichia coli ATCC 25922, Pseudomonas aeruginosa ATCC 27853 and gram-positive bacteria, Staphylococcus aureus ATCC 29213, Staphylococcus aureus ATCC 43300, Staphylococcus epidermidis ATCC 12228, Staphylococcus aureus ATCC 25923).

RAW 264.7 cells = type: cell-based, murine; details: RAW264.7; ratio of IC50 to GM
Procedure: (§2) The MTT (3-[4,5 dimethylthiozol-2-yl]-2,5-diphenylterazoliumbromide) dye was selected to analyze the cytotoxicity of peptides against the murine macrophage cell RAW 264.7 (National Collection of Authenticated Cell Cultures, Shanghai, China), human embryonic kidneys (HK293T), and the porcine intestinal epithelial cells (IPEC-J2) as in our previously study ([Li et al., 2020]). In short, the cells (10^4 cells/well) were seeded into 96-well plates and were cultivated overnight. Then the peptides with different final concentration (2μM, 4μM, 8μM, 16μM, 32μM, 64μM, and 128μM) were introduced into the plate and challenged with cells for 24h. After overnight incubation, the 50μl MTT (0.5mg/ml) was added into the cell cultures for 4h. Then the plate was centrifuged to discard the supernatants and obtain the formazan crystals. The DMSO (dimethyl sulfoxide) was employed as a solvent to dissolve the formazan crystals on the bottom of the plate and the optical density was read at 492nm with a microplate reader.

S.aureus 29213 = type: cell-based, Staphylococcus aureus ATCC 29213; details: 29213
Description: as §1
(§3) The famous microtiter dilution, National Committee for Clinical Laboratory Standards, was adopted to measure the antimicrobial ability of the engineering peptides ([Chou et al., 2016]). In brief, the 50μl with serial dilution was incubated with the same volume bacteria (1×10^5CFU/ml in midi-logarithmic phase) in a 96-well plate 18–24h at 37°C. The positive control was the bacteria treated with culture medium and the negative control was merely culture medium. The MICs (minimum inhibitory concentrations) were defined as the lowest concentration of peptides that prevented the production of visible turbidity ([Tossi et al., 2000]).

[1] = tested on: panel of gram-negative and gram-positive bacteria; details: over the eight strains of Table 2
Procedure: as §3

HEK 293T cells = type: cell-based, human; details: ratio of IC50 to GM
Procedure: as §2

MRSA 43300 = type: cell-based, Staphylococcus aureus ATCC 43300; details: microtiter dilution, 1×10^5CFU/ml, 18–24h at 37°C, visible turbidity
Description: as §1, §3

P.aeruginosa 27853 = type: cell-based, Pseudomonas aeruginosa ATCC 27853; details: 27853
Description: as §1, §3

[2] = tested on: human red blood cells (hRBCs); assay: Hemolytic activity; type: cell-based
Description: The hemolytic activity of peptides was reflected by the releasing amount of hemoglobin from erythrocytes lysis induced by peptides ([Dong et al., 2014a]). The informed consent was obtained from the volunteers (3 healthy 25-year-old male volunteers) before the experiment. In brief, the human red blood cells (hRBCs), donated by volunteer, were collected, washed, and resuspended in PBS at pH 7.2. The peptides were serially diluted in PBS at different concentrations in a 96-well cell cultures plate and incubated with 50μl hRBCs for 1h at 37°C. The 0.1% Trition X-100 was selected as the treatment of positive control and the negative control was the hRBCs treated with PBS. After 1h incubation, the supernatant, obtained by centrifuging the plate 1,000g for 5min, was transferred to a brand-new plate for absorbance detection at 570nm. The releasing amount of hemoglobin was converted to the percent hemolysis against to 0.1% Triton X-100 treatment. The lowest concentration caused 5% hemolysis of hRBCs and was defined as the lowest hemolytic concentration of antimicrobial peptide.

IPEC-J2 cells = type: cell-based, porcine; details: IPEC-J2; ratio of IC50 to GM
Procedure: as §2

[3] = tested on: hRBC, IPEC-J2, HEK 293T, RAW264.7
Procedure: Besides, the therapeutic index of peptide in the mammalian eukaryotic cell (RAW 264.7, HEK 293T, and IPEC J2) was also calculated to study the biocompatibility of peptides.

E. coli 25922 = type: cell-based, Escherichia coli ATCC 25922
Description: as §1

S.typhimurium 14028 = type: cell-based, Salmonella typhimurium ATCC 14028
Description: as §1

S.typhimurium 7731 = type: cell-based, Salmonella enterica serovar typhimurium C77-31
Description: as §1

S.aureus 25923 = type: cell-based, Staphylococcus aureus ATCC 25923; details: 25923
Description: as §1, §3

normal skin tissue = assay: Skin toxicity, TUNEL assay; details: subcutaneous injection, 24h; VW5 5mg/kg; DMSO 100μl 100%
Procedure: The potential toxicity of peptides to normal skin tissues was further tested by TUNEL assay ([Huang et al., 2009]). […] The 100μl 100% DMSO treatment served as a positive control, which was well-known for its toxicity to induce skin necrosis. Then, the skin samples were harvested and were subjected to TUNEL assay and counterstain with 4,6-diamidino-2-phenylindole (DAPI).

Compound	MIC (P. aeruginosa 27853) [µM]	MIC (S.epidermidis 12228) [µM]	Therapeutic index (TI) (RAW 264.7 cells)	MIC (S.aureus 29213) [µM]	GMMIC, geometric mean of the MICs [1] [µM]	Therapeutic index (TI) (HEK 293T cells)	MIC (MRSA 43300) [µM]	MIC (P.aeruginosa 27853) [µM]	HC5 (MHC), lowest concentration that caused 5% hemolysis ([2]; hRBC in PBS pH 7.2, 1h at 37°C, absorbance 570nm, vs 0.1% Triton X-100, highest test concentration 128μM) [µM]	Therapeutic index (TI) ([2]; hRBC, ratio of MHC to GM)	Therapeutic index (TI) (IPEC-J2 cells)	GMTI, geometric mean of TI of various cell lines [3]	MIC (E. coli 25922) [µM]	MIC (S.typhimurium 14028) [µM]	MIC (S.typhimurium 7731) [µM]	MIC (S.aureus 25923) [µM]	apoptotic cells in epidermal layer (TUNEL) (normal skin tissue)
VKKLVKKAVKKLVKKA-NH2 [VL1]	>64	>64	68.71	>64	128.00	75.40	>64	>64	>128	>1.00	58.65	>23.48	>64	>64	>64	>64	–
C[S+](C)[O-] [DMSO, dimethyl sulfoxide]	–	–	–	–	–	–	–	–	–	–	–	–	–	–	–	–	heavy cell apoptosis
